Structures can show the parent of a compound that is named as a salt.

For the experiment, the target named is T1, human receptor found in pancreatic islet cells (Homo sapiens, UniProt Q7Z601).
T1 sequence (Q7Z601 1-462): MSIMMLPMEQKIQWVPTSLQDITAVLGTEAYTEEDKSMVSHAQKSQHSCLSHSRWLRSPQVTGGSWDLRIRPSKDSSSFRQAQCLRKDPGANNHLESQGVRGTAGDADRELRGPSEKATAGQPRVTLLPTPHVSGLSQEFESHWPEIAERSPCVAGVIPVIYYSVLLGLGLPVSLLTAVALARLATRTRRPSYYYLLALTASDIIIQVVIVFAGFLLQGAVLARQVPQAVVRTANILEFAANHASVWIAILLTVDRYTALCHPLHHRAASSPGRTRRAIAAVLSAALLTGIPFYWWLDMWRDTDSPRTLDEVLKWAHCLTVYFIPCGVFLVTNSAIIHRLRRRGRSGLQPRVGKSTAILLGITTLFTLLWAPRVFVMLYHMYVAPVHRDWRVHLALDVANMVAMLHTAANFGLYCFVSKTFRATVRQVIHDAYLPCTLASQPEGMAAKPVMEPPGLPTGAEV
Nature of the experiment: Activation of intracellular IP3 signaling in transfected cells (Activation Assay). It counts as cell-based. The settings on record: calculated from IP3 concentration measurements in cells transfected with the human receptor. How it is done:
Table 12 provides exemplary compounds that were prepared and assessed, following protocols known to those of skilled in the art, for activation of intracellular inositol trisphosphate (IP3) signaling pathways that lead to elevation of intracellular calcium concentration. EC50 values provided in Table 12 were calculated from IP3 concentration measurements in cells transfected with a human receptor found in pancreatic islet cells, inter alia.
For `O=C(O)c1cc(NC(=O)[C@H](Cc2ccccc2)NCc2cc[nH]n2)cc(-c2ccncc2)c1` [Example 45.5, (S)-3-(2-((1H-Pyrazol-3-yl)methylamino)-3-phenylpropanamido)-5-(pyridin-4-yl)benzoic acid], the EC50 is 100 to 1000 nM.
`O=C(O)c1cc(NC(=O)[C@H](Cc2ccccc2)NCc2ccccn2)cc(-c2ccncc2)c1` [Example 45.6, (S)-3-(3-Phenyl-2-(pyridin-2-ylmethylamino)propanamido)-5-(pyridin-4-yl)benzoic acid]: the EC50 was 50 to 100 nM.
The value for `Cc1cc(-c2cc(Cl)cc(NC(=O)[C@H](Cc3ccccc3)NCc3ccccn3)c2)ccn1` [Example 46, (2S)—N-(3-chloro-5-(2-methylpyridin-4-yl)phenyl)-3-phenyl-2-(pyridin-2-ylmethylamino)propanamide] was 50 to 100 nM; that for `NC(=O)c1cc(NC(=O)[C@H](Cc2ccccc2)NCc2cscn2)cc(-c2ccncc2)c1` [Example 47, (S)-3-(3-phenyl-2-(thiazol-4-ylmethylamino)propanamido)-5-(pyridin-4-yl)benzamide] was 50 to 100 nM.
Next, `O=C(Nc1cccc(-c2ccccc2)c1)[C@H](Cc1ccccc1)NCc1cscn1` [Example 48]: 100 to 1000 nM; `Cc1cc(-c2cc(NC(=O)[C@@H](N)Cc3ccc(Cl)cc3Cl)cc(C(=O)O)c2)ccn1` [Example 49.1, 3-((S)-2-Amino-3-(2,4-dichlorophenyl)propanamido)-5-(2-methylpyridin-4-yl)benzoic acid]: 1000 to 10000 nM.
On to `Cc1cc(-c2cc(NC(=O)[C@H](Cc3ccccc3)NCc3cscn3)cc(C(=O)O)c2)ccn1` [Example 49.2, 3-(2-Methylpyridin-4-yl)-5-((S)-3-phenyl-2-(thiazol-4-ylmethylamino)propanamido)benzoic acid TFA salt], for which the EC50 was 100 to 1000 nM.
Next, `O=C([C@H](Cc1ccccc1)NCc1ccccn1)N1CCc2ccc(-c3ccncc3)cc21` [Example 50, (S)-3-Phenyl-2-(pyridin-2-ylmethylamino)-1-(6-(pyridin-4-yl)indolin-1-yl)propan-1-one TFA Salt]: 100 to 1000 nM; `Cc1cc(-c2cc(NC(=O)[C@H](Cc3ccccc3)NCc3cscn3)cc(NS(C)(=O)=O)c2)ccn1` [Example 51.1, (2S)—N-(3-(2-Methylpyridin-4-yl)-5-(methylsulfonamido)phenyl)-3-phenyl-2-(thiazol-4-ylmethylamino)propanamide]: 50 to 100 nM; `Cc1cc(-c2cc(NC(=O)[C@H](Cc3ccccc3)NCc3ccccn3)cc(NS(C)(=O)=O)c2)ccn1` [Example 51.2, (2S)—N-(3-(2-Methylpyridin-4-yl)-5-(methylsulfonamido)phenyl)-3-phenyl-2-(pyridin-2-ylmethylamino)propanamide]: 50 to 100 nM.
Turning to `O=C(Nc1cc(-c2ccncc2)cc(C(F)(F)C(=O)O)c1)[C@H](Cc1ccccc1)NCc1cscn1` [Example 52, (S)-2,2-difluoro-2-(3-(3-phenyl-2-(thiazol-4-ylmethylamino)propanamido)-5-(pyridin-4-yl)phenyl)acetic acid], the EC50 was 100 to 1000 nM.
For `N#Cc1cc(-c2ccncc2)cc2c1CCN2C(=O)[C@H](Cc1ccccc1)NCc1cscn1` [Example 53, (S)-1-(3-Phenyl-2-(thiazol-4-ylmethylamino)propanoyl)-6-(pyridin-4-yl)indoline-4-carbonitrile], the EC50 was 100 to 1000 nM.
Next, `COC(=O)c1cc(-c2ccncc2)cc2c1CCN2C(=O)[C@@H](N)Cc1ccccc1` [Example 54.1, (S)-Methyl 1-(2-amino-3-phenylpropanoyl)-6-(pyridin-4-yl)indoline-4-carboxylate]: 100 to 1000 nM; `COC(=O)c1cc(-c2ccncc2)cc2c1CCN2C(=O)[C@H](Cc1ccccc1)N[C@@H](C)c1ccccn1` [Example 54.2, Methyl 1-((S)-3-phenyl-2-((S)-1-(pyridin-2-yl)ethylamino)propanoyl)-6-(pyridin-4-yl)indoline-4-carboxylate TFA salt]: 100 to 1000 nM.
The value for `COC(=O)c1cc(-c2ccncc2)cc2c1CCN2C(=O)[C@H](Cc1ccccc1)NCc1cscn1` [Example 54.3, (S)-Methyl 1-(3-phenyl-2-(thiazol-4-ylmethylamino)propanoyl)-6-(pyridin-4-yl)indoline-4-carboxylate] was 50 to 100 nM; that for `COC(=O)c1cc(-c2ccncc2)cc2c1CCN2C(=O)[C@H](Cc1ccccc1)NCc1cc[nH]n1` [Example 54.4, (S)-Methyl 1-(2-((1H-pyrazol-3-yl)methylamino)-3-phenylpropanoyl)-6-(pyridin-4-yl)indoline-4-carboxylate] was 50 to 100 nM.
The value for `COC(=O)c1cc(-c2ccncc2)cc2c1CCN2C(=O)[C@H](Cc1ccc(F)cc1)NCc1cscn1` [Example 54.5, (S)-Methyl 1-(3-(4-fluorophenyl)-2-(thiazol-4-ylmethylamino)propanoyl)-6-(pyridin-4-yl)indoline-4-carboxylate] was 50 to 100 nM; that for `COC(=O)c1cc(-c2ccncc2)cc2c1CCN2C(=O)[C@H](Cc1ccc(F)cc1)NCc1cc[nH]n1` [Example 54.6, (S)-Methyl 1-(2-((1H-pyrazol-3-yl)methylamino)-3-(4-fluorophenyl)propanoyl)-6-(pyridin-4-yl)indoline-4-carboxylate] was 50 to 100 nM; that for `COC(=O)c1cc(-c2ccncc2)cc2c1CCN2C(=O)[C@H](Cc1ccc(F)cc1)NCc1ccccn1` [Example 54.7, (S)-Methyl 1-(3-(4-fluorophenyl)-2-(pyridin-2-ylmethylamino)propanoyl)-6-(pyridin-4-yl)indoline-4-carboxylate] was 50 to 100 nM.
With `COC(=O)c1cc(-c2ccncc2)cc2c1CCN2C(=O)[C@H](Cc1ccccc1)NCc1cscn1` [Example 54.8, TFA salt], the EC50 is 100 to 1000 nM.
The value for `CN(C)C(=O)c1cc(NC(=O)[C@H](Cc2ccccc2)NCc2cscn2)cc(-c2ccncc2)c1` [Example 55, (S)—N,N-Dimethyl-3-(3-phenyl-2-(thiazol-4-ylmethylamino)propanamido)-5-(pyridin-4-yl)benzamide] was 100 to 1000 nM; that for `Cc1cc(-c2ccc3c(c2)N(C(=O)[C@H](Cc2ccccc2)NCc2cscn2)CC3)ccn1` [Example 56, (2S)-1-(6-(2-Methylpyridin-4-yl)indolin-1-yl)-3-phenyl-2-(thiazol-4-ylmethylamino)propan-1-one] was 50 to 100 nM; that for `O=C([C@H](Cc1ccccc1)NCc1cscn1)N1CCc2c(-c3n[nH]c(=O)o3)cc(-c3ccncc3)cc21` [Example 57, (S)-5-(1-(3-Phenyl-2-(thiazol-4-ylmethylamino)propanoyl)-6-(pyridin-4-yl)indolin-4-yl)-1,3,4-oxadiazol-2(3H)-oneTFA salt] was 50 to 100 nM.
Next, `O=C([C@H](Cc1ccccc1)NCc1cscn1)N1CCc2c(-c3n[nH]c(=S)o3)cc(-c3ccncc3)cc21` [Example 58, (S)-3-Phenyl-1-(6-(pyridin-4-yl)-4-(5-thioxo-4,5-dihydro-1,3,4-oxadiazol-2-yl)indolin-1-yl)-2-(thiazol-4-ylmethylamino)propan-1-one]: less than 50 nM; `NC(=O)c1cc(-c2ccncc2)cc2c1CCN2C(=O)[C@H](Cc1ccccc1)NCc1cscn1` [Example 60, (S)-1-(3-Phenyl-2-(thiazol-4-ylmethylamino)propanoyl)-6-(pyridin-4-yl)indoline-4-carboxamide]: 100 to 1000 nM.
The value for `Cn1ncnc1-c1cc(-c2ccncc2)cc2c1CCN2C(=O)[C@H](Cc1ccccc1)NCc1cscn1` [Example 61, (2S)-1-(4-(2-Methyl-2H-1,2,4-triazol-3-yl)-6-(pyridin-4-yl)indolin-1-yl)-3-phenyl-2-(thiazol-4-ylmethylamino)propan-1-one] was 1000 to 10000 nM; that for `CNC(=O)c1cc(-c2ccncc2)cc2c1CCN2C(=O)[C@H](Cc1ccccc1)NCc1cscn1` [Example 62, (S)—N-Methyl-1-(3-phenyl-2-(thiazol-4-ylmethylamino)propanoyl)-6-(pyridin-4-yl)indoline-4-carboxamide] was 100 to 1000 nM.
With `CC(C)(C(=O)O)c1cc(NC(=O)[C@H](Cc2ccc(Cl)cc2)NCc2cscn2)cc(-c2ccncc2)c1` [Example 63.1, (S)-2-(3-(3-(4-Chlorophenyl)-2-(thiazol-4-ylmethylamino)propanamido)-5-(pyridin-4-yl)phenyl)-2-methylpropanoic acid], the EC50 is 100 to 1000 nM.
On to `CC(C)(C(=O)O)c1cc(NC(=O)[C@H](Cc2ccccc2)NC[C@H]2CCCO2)cc(-c2ccncc2)c1` [Example 63.2], for which the EC50 is 1000 to 10000 nM.
In the case of `COC(=O)COc1ccc(-c2ccnc(C)c2)cc1NC(=O)[C@H](Cc1ccccc1)NCc1cscn1` [Example 64, Methyl 2-(4-(2-methylpyridin-4-yl)-2-((S)-3-phenyl-2-(thiazol-4-ylmethylamino)propanamido)phenoxy)acetate], the EC50 was 50 to 100 nM.
The value for `COC(=O)COc1cc(NC(=O)[C@H](Cc2ccccc2)NCc2cscn2)cc(-c2ccnc(C)c2)c1` [Example 65, Methyl 2-(3-(2-methylpyridin-4-yl)-5-((S)-3-phenyl-2-(thiazol-4-ylmethylamino)propanamido)phenoxy)acetate] was 100 to 1000 nM.
